Some test systems named below: CAKI-1 renal; CCRF-CEM leukemia; HCT-116 colon; HOP-62 NSCLC; IGROV1 ovarian; K-562 leukemia; KM12 colon; M14 melanoma; M19-MEL melanoma; MALME-3M melanoma; NCI-H226 lung; OVCAR-5 ovarian; SK-MEL-2 melanoma; SK-MEL-5 melanoma; UACC-257 melanoma; SF-539 CNS; SK-OV-3 ovarian.
Assay in all cases: inhibition of tumour cell growth, NCI panel, 48 h

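Cultured in 96-well plates, cells were exposed to test compound for 48 hours across five concentrations. Definition used: TGI = concentration required for complete inhibition of growth.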 Some results are limits rather than exact numbers.

With `COc1ccc(/C=c2\sc3n(c2=O)C(N)=C(C#N)C(c2ccc(OC)cc2)C=3c2nc3ccccc3[nH]2)cc1` (stereo unspecified), the TGI in the assay on CAKI-1 renal was 42.9 µM; with CCRF-CEM leukemia it was above 100 µM; with HCT-116 colon it was 64.1 µM; in the assay with HOP-62 NSCLC, above 100 µM; in the assay on IGROV1 ovarian, above 100 µM; in the assay on K-562 leukemia, above 100 µM. For the same compound, the TGI was 31 µM in the assay on KM12 colon; above 100 µM in the assay on M14 melanoma; 63.8 µM in the assay with M19-MEL melanoma; 42.2 µM in the assay on MALME-3M melanoma; 49.2 µM in the assay on NCI-H226 lung; 67.5 µM with OVCAR-5 ovarian. In addition, the TGI came to 61.5 µM in the assay on SK-MEL-2 melanoma, 36.8 µM in the assay on SK-MEL-5 melanoma and 78.8 µM in the assay on UACC-257 melanoma.

As to `CCC1CN2CCc3c([nH]c4ccccc34)C2C[C@@H]1CC(=O)N(C)C` (stereo partly specified), the TGI in the assay on CCRF-CEM leukemia, with HCT-116 colon, in the assay on HOP-62 NSCLC, in the assay on IGROV1 ovarian, in the assay with K-562 leukemia and in the assay with KM12 colon was above 100 µM in each case. The TGI with M14 melanoma, in the assay with M19-MEL melanoma, in the assay on MALME-3M melanoma, with NCI-H226 lung, with OVCAR-5 ovarian and in the assay on SF-539 CNS was above 100 µM throughout. Moreover, the TGI in the assay with SK-MEL-2 melanoma, in the assay with SK-MEL-5 melanoma, with SK-OV-3 ovarian and in the assay with UACC-257 melanoma was above 100 µM each time.

Values taken from PubChem BioAssay (NCI).
